For one test, the target named is T1, α1a-AR (Homo sapiens, UniProt P35348).
T1 construct: expressed in transfected cells; host or cells: COS cells (pcDNA3 vector, DEAE-dextran transient transfection); membrane preparation
T1 sequence (P35348 1-466): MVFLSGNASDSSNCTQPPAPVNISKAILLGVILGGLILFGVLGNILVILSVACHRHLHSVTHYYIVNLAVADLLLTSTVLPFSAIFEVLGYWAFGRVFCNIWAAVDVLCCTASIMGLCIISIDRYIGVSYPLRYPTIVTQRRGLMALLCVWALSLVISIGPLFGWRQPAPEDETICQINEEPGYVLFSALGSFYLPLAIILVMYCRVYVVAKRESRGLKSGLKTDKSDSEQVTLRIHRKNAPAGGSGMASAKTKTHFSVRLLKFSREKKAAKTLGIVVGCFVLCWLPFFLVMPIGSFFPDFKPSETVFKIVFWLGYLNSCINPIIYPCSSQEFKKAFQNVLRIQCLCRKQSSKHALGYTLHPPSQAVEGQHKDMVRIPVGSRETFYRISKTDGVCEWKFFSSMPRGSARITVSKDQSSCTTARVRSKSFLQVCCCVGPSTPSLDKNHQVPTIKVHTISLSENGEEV
The test can be described thus: radioligand ([125I]-HEAT) receptor binding assay, COS cell membranes, α1a-AR. The settings on record: Tables A-J; [125I]-HEAT 50 pM, COS membranes; read-out: α1a IC50. The source says:
The first assay tested the ability of compounds of Formula I to bind to membrane bound receptors α1a-AR, α1b-AR and α1d-AR.
The DNA sequences of the three cloned human α1-AR subtypes have been published. […] We used published DNA sequence information to design-primers for use in RT-PCR amplification of each subtype to obtain cloned cDNAs. Human poly A+ RNA was obtained from commercially available sources and included hippocampus and prostate samples, sources which have been cited in the literature. For the primary screen a radio ligand binding assay was used which employed membrane preparations from cells expressing the individual cloned receptor cDNAs.
Each α1 receptor subtype was cloned from poly A+ RNA by the standard method of reverse transcription-polymerase chain reaction (RT-PCR). The following sources of polyA+ RNA were used for the cloning of the al receptor subtypes: α1a-AR, human hippocampus and prostate, α1b-AR, human hippocampus, α1d-AR, human hippocampus. The resulting cDNAs were cloned into the pcDNA3 mammalian expression vector (Invitrogen Corp., San Diego Calif.). Each DNA was sequenced for verification and to detect any possible mutations introduced during the amplification process. Any deviation in sequence from the published consensus for each receptor subtype was corrected by site-directed mutagenesis.
The three α1-AR subtypes (a, b, d) were transfected into COS cells using a standard DEAE-dextran procedure with a chloroquine shock. In this procedure, each tissue culture dish (100 mm) was inoculated with 3.5×10^6 cells and transfected with 10 μg of DNA. Approximately 72 hours post-transfection, the cells were harvested and COS membranes were prepared. Transfected COS cells from 25 plates (100 mm) were scraped and suspended in 15 mL of TE buffer (50 mM Tris-HCl, 5 mM EDTA, pH7.4). The suspension was disrupted with a homogenizer. It was then centrifuged at 1000×g for 10 minutes at 4° C. The supernatant was centrifuged at 34,500×g for 20 minutes at 4° C. The pellet was resuspended in 5 mL TNE buffer (50 mM Tris-HCl, 5 mM EDTA, 150 mM NaCl, pH7.4). The resulting membrane preparation was aliquoted and stored at −70° C. The protein concentration was determined following membrane solubilization with TritonX-100.
The ability of each compound to bind to each of the α1-AR subtypes was assessed in a receptor binding assay. […] The plate was incubated for 1 hour at room temperature and the reaction mixtures were filtered through a Packard GF/C Unifilter filter plate. The filter plate was dried for 1 hour in a vacuum oven. Scintillation fluid ([…]) was added to each well, and the filter plate was counted in a Packard Topcount scintillation counter. Data was analyzed using GraphPad Prism software.

The test system of another test is rat aorta tissues. Kind of test: norepinephrine-induced contractile response of rat aorta tissue. Format: tissue-based. To be noted: rat aortic rings, 37° C., pH 7.4, read-out: IC50, inhibition of contractile response in aortic tissue. The text has this: The contractile responses of rat prostatic tissue and rat aorta tissues were examined in the presence and absence of antagonist compounds. As an indication of the selectivity of antagonism, test compound effects on vascular smooth muscle contractility (α1b-AR and α1d-AR) were compared to the effects on prostatic smooth muscle (α1a-AR). Strips of prostatic tissue and aortic rings were obtained from Long Evans derived male rats weighing 275 grams and sacrificed by cervical dislocation. The prostate tissue was placed under 1 gram tension in a 10 ml bath containing phosphate buffered saline pH 7.4 at 32° C. and isometric tension was measured with force transducers. The aortic tissue was placed under 2 grams tension in a 10 ml bath containing phosphate buffered saline pH 7.4 at 37° C. The ability of test compound to reduce the norepinephrine-induced contractile response by 50% (IC50) was determined.

As to `CC(C)Oc1ccccc1N1CCN(Cc2ncc(CN3CCCCC3=O)s2)CC1` [Compound 16], the figures for the half-inhibitory concentration (IC50) on α1a-AR and with rat aorta tissues were 0.00188 µM and 13.5 µM, respectively.
Consider `CC(C)Oc1ccccc1N1CCN(Cc2cc(CN3CCCCC3=O)n[nH]2)CC1` [Compound 3], for which the values for the concentration for half-maximal inhibition (IC50) at α1a-AR and in the test with rat aorta tissues were 0.0021 µM and 31.9 µM, respectively.

Usually IC50 stands for the point on the concentration scale where inhibition reaches its midpoint.

Source of the values: US6841682B2, “Heterocycles useful in the treatment of benign prostatic hyperplasia” (Janseen Pharmaceutica N.V., priority 1997, dated 2005).
